Data reported in patent US10525060B2, “HCK as a therapeutic target in MYD88 mutated diseases” (Dana-Farber Cancer Institute, Inc., priority 2016, dated 2020).
Like-named read-outs stand apart in the source and are kept apart here.

What was measured:
LYN [1] = molecular target: T1, LYN (Homo sapiens, UniProt P07948); experiment: KiNativ profiling in WM cell lines; type: binding; set-up: endogenous in cells; host or cells: BCWM.1 and MWCL-1 WM cell lines; settings: for inhibition at 1 µM: read-out: KiNativ profiling, LYN inhibition (labeling site Lys1); for KiNativ profiling, LYN inhibition (labeling site Lys1): 1 μM
HCK (pTyr^411) = molecular target: T2, HCK (pTyr^411) (Homo sapiens, UniProt P08631); experiment: PhosFlow analysis of HCK Tyr411 phosphorylation; type: cell-based; settings: MYD88 L265P WM and ABC DLBCL cell lines and primary WM LPC, 0.5 μM, 30 minutes
T2 construct: endogenous in cells; host or cells: BCWM.1 (A3); BCWM.1, MWCL-1, TMD-8 (A8); WM and ABC DLBCL lines and primary WM cells (A12)
Method: PhosFlow analysis was performed to delineate HCK phosphorylation. Cells were fixed with BD PhosFlow Fix Buffer I at 37° C. for 10 min. Cells were then centrifuged (300×g for 5 min) and washed twice with PhosFlow Perm/Wash Buffer I (BD Pharmingen). […] Following staining, cells were incubated in the dark for 30 min at room temperature, then washed thrice with BD PhosFlow Perm/Wash Buffer I, followed by anti-Rabbit IgG DyLight®-649 secondary antibody (Abcam), and incubated for an additional 20 min. Cells were then washed twice with BD PhosFlow Perm/Wash Buffer I and flow analysis performed using a BD™ FACSCanto II Flow Cytometer.
(§1) We also evaluated tumor cell viability by the CellTiter-Glo® Luminescent cell viability assay, and apoptosis by propidium iodide and Annexin V staining to determine if HCK inhibition contributed to WM cell death.

LYN [2] = molecular target: T1, LYN; experiment: Kinase active-site inhibition assay (ATP-biotin probe, western blot) in BCWM.1 cells; type: binding; set-up: endogenous in cells; host or cells: BCWM.1; settings: BCWM.1 WM cells, pre-treated 1 hour, various concentrations
Method: (§2) Cells then washed with PBS twice, and lysed with co-IP buffer (Invitrogen, Grand Island N.Y.). Two mg of protein from lysed cells was then incubated with […] of Pierce Streptavidin Magnetic Beads (Thermo Fisher Scientific, Cambridge Mass.) at 4° C. for 1 hour, then washed with TBST (0.1% Tween-20) thrice, and proteins eluted with SDS-PAGE sample buffer. […] Cells then were lysed and kinases were pulled down with ATP-biotin using Pierce™ Kinase Enrichment Kit (Thermo Fisher Scientific) per manufacturer's instructions. Kinases were eluted with SDS-PAGE sample buffer and detected by western blot.

HCK [3] = molecular target: T3, HCK (Homo sapiens, UniProt P08631); settings: read-out: IC50 kinase activity of HCK; cited from earlier work
[4] = tested on: MYD88^WT cell lines or healthy donor B-cells; experiment: Apoptosis by propidium iodide and Annexin V staining; type: cell-based; settings: data not shown
Method: (§3) Apoptosis analysis was performed using Annexin V/Propidium iodide staining with the Apoptosis Detection Kit I (BD Pharmingen, San Jose Calif.). Cells (1×10^6/well) were treated in 24 well plates for 18 hours with inhibitors or corresponding controls. A minimum of 10,000 events were acquired using a BD™ FACSCanto II flow cytometer, and analyzed with BD FACS DIVA Software. For WM patient cells, BMMC (2×10^6/well) were treated with inhibitors, and CD19-APC-cy7 antibody (BD Pharmingen) was used with Annexin V antibody to analyze WM cell apoptosis. AlamarBlue® cell viability assay (Life Technologies, Carlsbad Calif.) was used to assess cell death following inducible HCK knockdown. For these experiments, transduced cells (1×10^5/ml) were cultured with tetracycline, and aliquoted every other day on days 1-11. AlamarBlue® solution ( 1/10 total volume) was added to cells and incubated for 2 hours. Aliquoted plates were read in a SpectraMax M3 plate reader (Molecular Devices, Sunnyvale, Calif.). Relative cell survival was calculated as percentage of fluorescence relative to scrambled control. The CellTiter-Glo® Luminescent cell viability assay (Promega, Madison Wis.) was used to assess the dose-response of inhibitors. Cells were seeded into 384 well plates with the EL406 Combination Washer Dispenser (BioTek Instruments, Inc.) and inhibitors injected into the cells culture media with the JANUS Automated Workstation (PerkinElmer Inc., Waltham Mass.). Cells were treated with serial diluted inhibitors (20-0.0006 M) for 72 hours at 37° C. Luminescent measurement was performed using the 2104 Envision® Multilabel Reader (PerkinElmer Inc.).
as §1

[5] = tested on: mutated MYD88 cell lines and primary WM cells; experiment: as above; type: cell-based; settings: 0.5 μM, 18 hours
Method: as §3, §1

HCK [6] = molecular target: T3, HCK; experiment: Kinase active-site inhibition assay (ATP-biotin probe, western blot) in BCWM.1 cells; type: binding; set-up: endogenous in cells; host or cells: BCWM.1 (A3); BCWM.1, MWCL-1, TMD-8 (A8); WM and ABC DLBCL lines and primary WM cells (A12); settings: BCWM.1 WM cells, pre-treated 1 hour, various concentrations
Method: as §2

TMD-8 ABC DLBCL cells = experiment: Cell viability of TMD-8 cells transfected with BTK vectors; type: cell-based; settings: FIG. 8B
BCWM.1 WM cells = experiment: Dose dependent tumor cell survival of BCWM.1 cells transduced with BTK or HCK vectors; type: cell-based
Description: as §1

[7] = tested on: mutated MYD88 expressing WM and ABC DLBCL cell lines; experiment: CellTiter-Glo Luminescent cell viability assay; type: cell-based
Method: as §3, with “AlamarBlue® solution ( 1/10 total volume) was added to cells and incubated for 2 hours.” left out, “The CellTiter-Glo® Luminescent cell viability assay (Promega, Madison Wis.) was used to assess the dose-response of inhibitors. Cells were seeded into 384 well plates with the EL406 Combination Washer Dispenser (BioTek Instruments, Inc.) and inhibitors injected into the cells culture media with the JANUS Automated Workstation (PerkinElmer Inc., Waltham Mass.). Cells were treated with serial diluted inhibitors (20-0.0006 M) for 72 hours at 37° C.” left out
as §1

SRC = molecular target: T4, SRC (Homo sapiens, UniProt P12931); experiment: Kinase active-site inhibition assay (ATP-biotin probe, western blot) in BCWM.1 cells; type: binding; settings: BCWM.1 WM cells, pre-treated 1 hour, various concentrations
T4 construct: endogenous in cells; host or cells: BCWM.1
Method: as §2

BTK = molecular target: T5, BTK (Homo sapiens, UniProt Q06187); experiment: as above; type: binding; settings: BCWM.1 WM cells, pre-treated 1 hour, various concentrations
T5 construct: endogenous in cells; host or cells: BCWM.1 (A4); BCWM.1, MWCL-1, TMD-8 (A7)
Method: as §2

FYN, SRC, YES = experiment: KiNativ profiling in WM cell lines; type: binding, Homo sapiens; settings: 1 μM
CD19+ bone marrow cells = experiment: Apoptosis by flow cytometry in cells from a WM patient resistant to ibrutinib; type: cell-based, human
Method: as §3, with “Cells were seeded into 384 well plates with the EL406 Combination Washer Dispenser (BioTek Instruments, Inc.) and inhibitors injected into the cells culture media with the JANUS Automated Workstation (PerkinElmer Inc., Waltham Mass.). Cells were treated with serial diluted inhibitors (20-0.0006 M) for 72 hours at 37° C.” left out

CD5+CD19+ PBMC cells = experiment: Apoptosis ex vivo in cells from a CLL patient resistant to ibrutinib; type: cell-based, human; settings: DMSO 11.9%

Compound	inhibition at 1 µM (LYN [1]; BCWM.1 cells) [%]	inhibition at 1 µM (LYN [1]; MWCL-1 cells) [%]	change in HCK Tyr411 phosphorylation (HCK (pTyr^411))	blocking of ATP binding to LYN (LYN [2])	apoptotic activity [4]	apoptotic changes [5]	blocking of ATP binding to HCK (HCK [6])	blocking of ATP binding to SRC (SRC)	KiNativ profiling, FYN, SRC, YES (labeling site Activation Loop) (FYN, SRC, YES; BCWM.1 cells)	KiNativ profiling, FYN, SRC, YES (labeling site Activation Loop) (FYN, SRC, YES; MWCL-1 cells)	also measured
C=CC(=O)N1CCC[C@@H](n2nc(-c3ccc(Oc4ccccc4)cc3)c3c(N)ncnc32)C1 [Ibrutinib]	60.5	80.6									
C=CC(=O)Nc1cccc(Nc2nc(Nc3ccc(OCCOC)cc3)ncc2F)c1 [CC-292]			little or no impact on HCK Tyr^411 phosphorylation	did not block ATP binding to either SRC or LYN	little or no apoptotic activity	little or no impact on apoptosis	not CC-292 blocked ATP binding to HCK	did not block ATP binding to either SRC or LYN	10.5	−0.4	IC50 (HCK [3]): 14.6 µM; potency for tumor cell killing in BTK^C481S expressing cells versus wild-type BTK or control vector (TMD-8 ABC DLBCL cells): decreased the potency; KiNativ profiling, LYN inhibition (labeling site Lys1) (LYN [1]; BCWM.1 cells): 15.7; KiNativ profiling, LYN inhibition (labeling site Lys1) (LYN [1]; MWCL-1 cells): 14.2; potency for tumor cell killing in BTK^C481S expressing cells versus wild-type BTK or control vector (BCWM.1 WM cells; BCWM.1 WM cells, FIG. 8A): reduced potency; change in tumor cell killing with HCK^T333M or wild-type HCK (BCWM.1 WM cells; BCWM.1 transduced to express HCK^T333M or wild-type HCK): No substantial change in tumor cell killing; higher EC50 in viability assay ([7]; mutated MYD88 cell lines except OCI-Ly3, 72 hours): > 1 log-fold; blocking of ATP binding to BTK (BTK): blocked ATP binding to BTK
CN1CCN([C@H]2CC[C@H](n3cc(-c4ccc(Oc5ccccc5)cc4)c4c(N)ncnc43)CC2)CC1 [A419259]	> 99	> 99	reduced HCK Tyr^411 phosphorylation	blocked ATP binding to the SRC family members SRC and LYN	little or no apoptotic activity	Increased apoptotic changes	blocked ATP binding to HCK in a dose-dependent manner	blocked ATP binding to the SRC family members SRC and LYN	>99	98.1	apoptotic cells (CD19+ bone marrow cells; 0.1 μM): 20.8%; apoptotic cells (CD19+ bone marrow cells; 0.5 μM): 24.6%; dose-dependent viability ([7]; 72 hours, more pronounced in mutated MYD88 than MYD88 WT cells): Decreased dose-dependent viability; apoptotic cells (CD5+CD19+ PBMC cells; 0.1 μM): 18.4%; apoptotic cells (CD5+CD19+ PBMC cells; 0.5 μM): 25.6%
